Measurements reported in patent publication US10259808B2 (Genentech, Inc., priority 2015, dated 2019).
Like-named read-outs stand apart in the source and are kept apart here.

Biological target: T1, RORc ligand binding domain (Homo sapiens, UniProt P51449)
T1 sequence (P51449 269-508 limits assumed): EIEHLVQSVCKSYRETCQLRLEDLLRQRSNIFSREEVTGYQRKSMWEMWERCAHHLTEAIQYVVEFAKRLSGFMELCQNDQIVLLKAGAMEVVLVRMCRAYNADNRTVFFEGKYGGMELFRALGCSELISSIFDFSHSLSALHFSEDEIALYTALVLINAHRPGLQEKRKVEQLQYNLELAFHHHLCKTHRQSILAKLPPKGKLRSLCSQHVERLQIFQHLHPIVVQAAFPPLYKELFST
Assay: In vitro RORc ligand binding assay (25-[3H]hydroxycholesterol displacement)
Experimental: This assay was used to determine a compound's potency in inhibiting activity of RORc by determining, Kiapp, IC50, or percent inhibition values.
On day of the assay, 100 uL of 0.05% CHAPS (in deionized H2O) was added to all wells of the GFB Unifilter plate and allowed soak for 1 h. A wash buffer of 50 mM HEPES (pH 7.4), 150 mM NaCl, and 5 mM MgCl2 was prepared to wash the filter plate. To prepare an assay buffer, BSA was added to the wash buffer to reach 0.01% and DTT was added to reach 1 mM.
The 20× compound stocks were diluted in DMSO with Assay Buffer 4-fold to reach 5× the final test concentration in 25% DMSO (10 uL compound+30 uL Assay Buffer). Solutions were mixed by aspiration several times with a pipette set on 50 uL volume.
For two point screening, 10 mM stock compound solutions were diluted in DMSO to obtain 200 uM (20× the high test concentration) and then diluted 10-fold further to reach 20 uM (20× the low test concentration). The 20× stocks were diluted 4-fold with Assay Buffer (10 uL compound+30 uL Assay Buffer) to reach 5× the test concentrations (50 uM and 5 uM) and 10 uL were added to two assay plates for the duplicate wells. With each concentration tested on 2 plates, each set of 80 compounds used 4 assay plates (1 uM and 10 uM, with n=2).
Nonspecific Binding (NSB) Samples, Total Binding (TB) Samples and No Receptor (No R) Samples
For 25-hydroxycholesterol in 25% DMSO/75% Assay Buffer; 10 uL per well was used for NSB samples. Wells for Total Binding and No Receptor sample determination contained 10 uL of 25% DMSO/75% Assay Buffer per well.
Radioligand 25-[^3H]Hydroxycholesterol) Preparation
Add 20 uL to all wells to reach 6 nM final in the assay.
Stock receptor solution was diluted in assay buffer to obtain 1.5 ug/mL in Assay Buffer. 20 uL was added to all wells. For No R samples, 20 uL Assay Buffer was substituted for receptor solution.
Sample addition to Plates and Incubation
Assay plates were 96-well polypropylene V-bottom plates. […] 10 uL of 25% DMSO/75% Assay Buffer was added to Total Binding or No Receptor wells. 10 uL of 5 uM 25-hydroxycholesterol in 25% DMSO/75% Assay Buffer was added to NSB wells. […] 20 uL of 1.5 ug/mL RORc receptor was added to wells (or 40 uL Assay Buffer to No R wells). Following addition to the wells, the plates were incubated 3 h at 25° C.
Using a Packard Filtermate Harvester, the filter plate were washed 4 times following transfer of the incubated samples. Plates were dry-filtered completely (2 h at 50° C. or overnight at room temperature). 50 uL Microscint 0 was added to all wells and read on Topcount protocol Inverted.
Final concentrations were as follows: 50 mM HEPES buffer (pH 7.4); 150 mM NaCl; 1 mM DTT; 5 mM MgCl2; 0.01% BSA; 5% DMSO; 0.6 ug/mL RORc receptor; 6 nM 25-[^3H]hydroxycholesterol. For NSB wells, 1 uM 25-hydroxycholesterol was also present.

`C[C@H]1CC[C@H](c2ccccc2)S(=O)(=O)N1Cc1cc(F)c([C@]2(c3nn(C)c(=O)o3)C[C@H](O)C2)cc1F` [Example 147, trans 5-[1-[2,5-difluoro-4-[[(3S,6R)-3-methyl-1,1-dioxo-6-phenyl-thiazinan-2-yl]methyl]phenyl]-3-hydroxy-cyclobutyl]-3-methyl-1,3,4-oxadiazol-2-one] showed an IC50 of 4.6 nM.

With `C[C@H]1CC[C@H](c2ccccc2)S(=O)(=O)N1Cc1cc(F)c([C@]2(c3n[nH]c(=O)o3)C[C@@](O)(C(F)(F)F)C2)cc1F` [Example 149, trans 5-[1-[2,5-difluoro-4-[[(3S,6R)-3-methyl-1,1-dioxo-6-phenyl-thiazinan-2-yl]methyl]phenyl]-3-hydroxy-3-(trifluoromethyl)cyclobutyl]-3H-1,3,4-oxadiazol-2-one] the IC50 was 5.3 nM.

With `C[C@H]1CC[C@H](c2ccccc2)S(=O)(=O)N1Cc1cc(F)c([C@]2(c3n[nH]c(=O)o3)C[C@@H]2CO)cc1F` [Example 150, 5-[(1S,2S)-1-[2,5-difluoro-4-[[(3S,6R)-3-mcthyl-1,1-dioxo-6-phenyl-thiazinan-2-yl]methyl]phenyl]-2-(hydroxymethyl)cyclopropyl]-3H-1,3,4-oxadiazol-2-one] the IC50 was 39 nM.

`C[C@H]1CC[C@H](c2ccccc2)S(=O)(=O)N1Cc1cc(F)c([C@]2(c3nn(C)c(=O)o3)C[C@](C)(O)C2)cc1F` [Example 151, trans 5-[1-[2,5-difluoro-4-[[(3S,6R)-3-methyl-1,1-dioxo-6-phenyl-thiazinan-2-yl]methyl]phenyl]-3-hydroxy-3-methyl-cyclobutyl]-3-methyl-1,3,4-oxadiazol-2-one] was tested, and the IC50 was 6.9 nM.

In the case of `C[C@H]1CC[C@H](c2ccccc2)S(=O)(=O)N1Cc1cc(F)c([C@]2(c3n[nH]c(=O)o3)C[C@@H](CC#N)C2)cc1F` [Example 152, cis 2-[3-[2,5-difluoro-4-[[(3S,6R)-3-methyl-1,1-dioxo-6-phenyl-thiazinan-2-yl]methyl]phenyl]-3-(2-oxo-3H-1,3,4-oxadiazol-5-yl)cyclobutyl]acetonitrile], the IC50 is reported as 7.1 nM.

Molecule `C[C@H]1CC[C@H](c2ccccc2)S(=O)(=O)N1Cc1cc(F)c([C@]2(c3n[nH]c(=O)o3)C[C@H](CC#N)C2)cc1F` [Example 153, trans 2-[3-[2,5-difluoro-4-[[(3S,6R)-3-methyl-1,1-dioxo-6-phenyl-thiazinan-2-yl]methyl]phenyl]-3-(2-oxo-3H-1,3,4-oxadiazol-5-yl)cyclobutyl]acetonitrile] has an IC50 of 8.7 nM.

In the case of `CO[C@H]1C[C@@](c2n[nH]c(=O)o2)(c2cc(F)c(CN3[C@@H](C)CC[C@H](c4ccccc4)S3(=O)=O)cc2F)C1` [Example 154, trans 5-[1-[2,5-difluoro-4-[[(3S,6R)-3-methyl-1,1-dioxo-6-phenyl-thiazinan-2-yl]methyl]phenyl]-3-methoxy-cyclobutyl]-3H-1,3,4-oxadiazol-2-one], the IC50 is reported as 6.2 nM.

Molecule `CO[C@H]1C[C@](c2n[nH]c(=O)o2)(c2cc(F)c(CN3[C@@H](C)CC[C@H](c4ccccc4)S3(=O)=O)cc2F)C1` [Example 155, cis 5-[1-[2,5-difluoro-4-[[(3S,6R)-3-methyl-1,1-dioxo-6-phenyl-thiazinan-2-yl]methyl]phenyl]-3-methoxy-cyclobutyl]-3H-1,3,4-oxadiazol-2-one] has an IC50 of 11.3 nM.

Molecule `CO[C@]1(C)C[C@](c2n[nH]c(=O)o2)(c2cc(F)c(CN3[C@@H](C)CC[C@H](c4ccccc4)S3(=O)=O)cc2F)C1` [Example 156, trans 5-[1-[2,5-difluoro-4-[[(3S,6R)-3-methyl-1,1-dioxo-6-phenyl-thiazinan-2-yl]methyl]phenyl]-3-methoxy-3-methyl-cyclobutyl]-3H-1,3,4-oxadiazol-2-one] has an IC50 of 4 nM.

`CO[C@]1(C)C[C@@](c2n[nH]c(=O)o2)(c2cc(F)c(CN3[C@@H](C)CC[C@H](c4ccccc4)S3(=O)=O)cc2F)C1` [Example 157, cis 5-[1-[2,5-difluoro-4-[[(3S,6R)-3-methyl-1,1-dioxo-6-phenyl-thiazinan-2-yl]methyl]phenyl]-3-methoxy-3-methyl-cyclobutyl]-3H-1,3,4-oxadiazol-2-one] showed an IC50 of 7.4 nM.

`C[C@H]1CC[C@H](c2ccccc2)S(=O)(=O)N1Cc1cc(F)c([C@]2(c3c[nH]c(=O)o3)C[C@](C)(O)C2)cc1F` [Example 158, 5-[1-[2,5-difluoro-4-[[(3S,6R)-3-methyl-1,1-dioxo-6-phenyl-thiazinan-2-yl]methyl]phenyl]-3-hydroxy-3-methyl-cyclobutyl]-3H-oxazol-2-one] showed an IC50 of 3.2 nM.

`C[C@H]1CC[C@H](c2ccccc2)S(=O)(=O)N1Cc1cc(F)c([C@]2(c3cn(C)c(=O)o3)C[C@](C)(O)C2)cc1F` [Example 159, 5-[1-[2,5-difluoro-4-[[(3S,6R)-3-methyl-1,1-dioxo-6-phenyl-thiazinan-2-yl]methyl]phenyl]-3-hydroxy-3-methyl-cyclobutyl]-3-methyl-oxazol-2-one] was tested, and the IC50 was 2.8 nM.

Molecule `Cc1[nH]c(=O)oc1[C@]1(c2cc(F)c(CN3[C@@H](C)CC[C@H](c4ccccc4)S3(=O)=O)cc2F)C[C@@](C)(O)C1` [Example 160, 5-[1-[2,5-difluoro-4-[[(3S,6R)-3-methyl-1,1-dioxo-6-phenyl-thiazinan-2-yl]methyl]phenyl]-3-hydroxy-3-methyl-cyclobutyl]-4-methyl-3H-oxazol-2-one] has an IC50 of 13.6 nM.

`C[C@H]1CC[C@H](c2ccccc2)S(=O)(=O)N1Cc1cc(F)c([C@]2(c3cc(=O)n(C)o3)C[C@](C)(O)C2)cc1F` [Example 161, 5-[1-[2,5-difluoro-4-[[(3S,6R)-3-methyl-1,1-dioxo-6-phenyl-thiazinan-2-yl]methyl]phenyl]-3-hydroxy-3-methyl-cyclobutyl]-2-methyl-isoxazol-3-one] showed an IC50 of 5.2 nM.

`COc1cc([C@]2(c3cc(F)c(CN4[C@@H](C)CC[C@H](c5ccccc5)S4(=O)=O)cc3F)C[C@@](C)(O)C2)on1` [Example 162, 3-[2,5-difluoro-4-[[(3S,6R)-3-methyl-1,1-dioxo-6-phenyl-thiazinan-2-yl]methyl]phenyl]-3-(3-methoxyisoxazol-5-yl)-1-methyl-cyclobutanol] was tested, and the IC50 was 3.6 nM.

Work on `C=C[C@]1(O)C[C@@](c2c[nH]c(=O)o2)(c2cc(F)c(CN3[C@@H](C)CC[C@H](c4ccccc4)S3(=O)=O)cc2F)C1` [Example 164, 5-[1-[2,5-difluoro-4-[[(3S,6R)-3-methyl-1,1-dioxo-6-phenyl-thiazinan-2-yl]methyl]phenyl]-3-hydroxy-3-vinyl-cyclobutyl]-3H-oxazol-2-one] yielded an IC50 of 6.1 nM.

`C[C@H]1CC[C@H](c2ccccc2)S(=O)(=O)N1Cc1cc(F)c([C@]2(c3c[nH]c(=O)o3)C[C@@](O)(C3CC3)C2)cc1F` [Example 165, 5-[3-cyclopropyl-1-[2,5-difluoro-4-[[(3S,6R)-3-methyl-1,1-dioxo-6-phenyl-thiazinan-2-yl]methyl]phenyl]-3-hydroxy-cyclobutyl]-3H-oxazol-2-one] showed an IC50 of 6.7 nM.

Molecule `C[C@H]1CC[C@H](c2ccccc2)S(=O)(=O)N1Cc1cc(F)c(C2(C(=O)NCC3COC3)CCOCC2)cc1F` [Example 346, 4-[2,5-difluoro-4-[[(3S,6R)-3-methyl-1,1-dioxo-6-phenyl-thiazinan-2-yl]methyl]phenyl]-N-(oxetan-3-ylmethyl)tetrahydropyran-4-carboxamide] has an IC50 of 47.4 nM.

Molecule “cis 5-[1-[2,5-difluoro-4-[[(3S,6R)-3- methyl-1,1-dioxo-6-phenyl-thiazinan-2- yl]methyl]phenyl]-3-hydroxy-3- (trifluoromethyl)cyclobutyl]-3H-1,3,4- oxadiazol-2-one [Example 148]” has an IC50 (IC50 values for RORc) of 11 nM.
